We go through six compounds from PubChem BioAssay AID1023 (Columbia University Molecular Screening Center, 2008).

The structures appear in SMILES notation. pIC50: −log10 of the molar value.

The assay concerns HUVEC TNFalpha-induced p65 nuclear translocation, imaging. Nature of the assay: inhibitors of TNFa-induced NFkB p65 translocation, SAR follow-up, imaging, HUVEC (AID 1023).
One may read the pIC50 as −log10 of the IC50, conventionally taken in molar units. With `Cc1ccc2cccc(NS(=O)(=O)c3ccc(Cl)s3)c2n1`, the pIC50 was 6.01. With `Cc1ccc2c(c1)-c1ccc3cccnc3c1NS2(=O)=O`, the pIC50 is 6.25. Under `COc1ccc(S(=O)(=O)Nc2cccc3ccc(C)nc23)c([N+](=O)[O-])c1` stands 5.99; under `COc1ccc2c(c1)-c1ccc3cccnc3c1NS2(=O)=O`, 6.00; under `COc1cc2ccc(C)nc2c2c1-c1cc(C)ccc1S(=O)(=O)N2`, 6.05. The figure for `Cc1ccc2cccc(NS(=O)(=O)c3cccc([N+](=O)[O-])c3)c2n1` is 6.04.
